This is an account of results in patent US11357800B2, “Compositions for the treatment of neuropathic pain and sensitization of tumors to chemotherapies” (Henry Ford Health System, priority 2016, dated 2022).

Structures are written as SMILES. Read-outs that look alike come from different tables or passages of the source.

The subject of one data set is DRG neurons. Description: Axonal growth of DRG neurons in microfluidic device.
In data set [1] the test system is human colon carcinoma HCT-116. The data set is described as follows: Tumor cell viability, MTT assay, HCT-116. It counts as cell-based. As to conditions: read-out: IC50 cytotoxicity of oxaliplatin. The protocol: (§1) Tumor cell viability was measured using an MTT assay.
(In general: Tetrazolium assays rely on reduction of a dye to a coloured formazan, in cell work by metabolically active cells.)

Data set [2] relates to P-gp1, ABCC1, cleaved Caspase 3. As to conditions: tumor tissues.
Data set [3] has as its system human ovarian carcinoma OVCAR3. The data set is described as follows: Tumor cell viability, MTT assay, OVCAR3. It counts as cell-based. As to conditions: read-out: IC50 cytotoxicity of oxaliplatin. On the procedure:
as §1

The test system of data set [4] is intraepidermal nerve fibers, sciatic nerve small fibers, DRG neurons. The data set is described as follows: Histology and TEM of footpad, sciatic nerve and DRG of tumor bearing mice. It counts as in vivo, mouse. An excerpt: Intraepidermal nerve fibers (IENFs) are sensory nerves that innervate dermis and epidermis. […] Calcitonin gene-related peptide (CGRP) DRG neurons are primary sensory neurons encoding heat and cold perception.

Data set [5] relates to miR-15b, miR-26a, miR-125b. As to conditions: tumor tissues.
For data set [6] the following is noted: one randomized trial; cited from earlier work.
The conditions of data set [7]: in vivo; cited from earlier work.
[8] abbreviates: double immunofluorescent analysis.

Turning to `O=C1[O][Pt]2([NH][C@@H]3CCCC[C@H]3[NH]2)[O]C1=O` [Oxaliplatin], in the data set with DRG neurons (oxaliplatin 3.6 nM (reduced concentration, IRF of 2.5)), the axonal growth inhibited is 27%. In the data set with DRG neurons (oxaliplatin 9.1 nM (regular dose)), this compound registered an axonal growth suppressed of 50%. Further, the IC50 turned out to be 9.1 nM with DRG neurons (read-out: Half Maximal Inhibitory Concentration, IC50, growth of axons, oxaliplatin applied into the axonal compartment, 24 h); 6.9 ± 1 µM in data set [1] (HCT-116, with CEC derived exosomes (3×10^2 exosomes)); 16.1 ± 2.1 µM in data set [1] (HCT-116, without CEC derived exosomes); 2.3 ± 0.1 µM in data set [3] (OVCAR3, with CEC derived exosomes (3×10^2 exosomes)); 6.5 ± 1.1 µM in data set [3] (OVCAR3, without CEC derived exosomes). In data set [2], the “protein level of ABCC1” value is reported as “increased”. For the same compound, the “protein level of P-gp1” value in data set [2] is “increased”. For the same compound, the “IEFN density assayed by the number of PGP9.5 positive fibers” value in data set [4] (dermal tissues of tumor bearing mice) is reported as “significantly reduced”. The “diameters of CGRP positive DRG neurons” value in data set [4] (setting [8]) is “selectively reduced”. For the same compound, in data set [4] (setting [8]), the “diameters of NF200 positive DRG neurons” value is given as “reduced diameters of CGRP, but not NF200 positive neurons”. Also, the miR-15b level entry in data set [5] is recorded as “significantly reduced”. For the same compound, in data set [5], the miR-26a level entry was “significantly reduced”.
Turning to `CNCCC=C1c2ccccc2CCc2ccccc21` [nortriptyline], the “therapy of CIPN symptoms” value in data set [6] is recorded as “ineffective”.
Consider `Cc1c(C)c2c(c(C)c1O)CC[C@@](C)(CCC[C@H](C)CCC[C@H](C)CCCC(C)C)O2` [α-tocopherol], for which the “antineuropathic effect on oxaliplatin-induced behavioral alterations” value in data set [7] is reported as “about 50%”.
